Laboratory results: article PMC7363839, “A Peptide-Based PD1 Antagonist Enhances T-Cell Priming and Efficacy of a Prophylactic Malaria Vaccine and Promotes Survival in a Lethal Malaria Model” (Frontiers in Immunology, 2020)

Test system: P. yoelii 17 XNL sporozoites
Assay: P. yoelii 17 XNL sporozoite challenge of AdPyCS-immunized mice
Assay type: in vivo, BALB/c mice
Conditions: suboptimal AdPyCS IM; 200 μg IP days 1, 3, 5, 7; challenge day 12 with 100 sporozoites IV; AdPyCS alone 4.8 ± 0.6 days
Description: Sporozoite challenge experiments were performed, as described previously ([32]). Briefly, immunized mice were administered 100 live P. yoelii 17 XNL sporozoites IV via the tail vein. Parasitemia was monitored from days 3 to 10 after sporozoite challenge by detecting the presence of parasitized red blood cells in thin blood smears to assess complete protection against malaria. Briefly, a drop of blood was collected from the mouse tail vein for thin blood smears on pre-cleaned glass slides. Thin blood smears were fixed with absolute methanol and then stained with diluted Giemsa stain (1:20, v/v) (Sigma-Aldrich, St. Louis, MO) for 10 min. […]
Figure 2 LD01 increases antigen-specific CD8^+ T cell numbers following AdPyCS vaccination. (A) At day 12 post-AdPyCS immunization, immunogenicity was assessed by measuring the number of splenic PyCS-specific, IFN-γ-secreting CD8^+ T cells using the ELISpot assay after stimulation with the H-2kd restricted CD8 epitope SYVPSAEQI. Data are expressed as the mean ± SD. […] Significant differences between AdPyCS + control peptide and treated mice were determined using a one-way ANOVA multiple comparisons test and are denoted by *p < 0.05 and **p < 0.005. […] Data represent two independent experiments (n = 10/group/experiment) and are expressed as the mean percent protection. […]

OVA323−339 (KISQAVHAAHAEINEAG; UniProt P01012 323-339, looked up, fragment) [control peptide, control peptide used in AdPyCS vaccine studies]
time of patency: 4.7 ± 0.7 days
